Results reported in the NIST ThermoML archive (doi:10.1016/j.jct.2014.03.022).

Assay: xn = mol fraction of the nth substance listed
Settings: for surface tension liquid-gas: Wilhelmy plate method; for viscosity: 101.3 kPa, Liquid, Concentric cylinders viscometry

CCCCCCCCCO [nonan-1-ol] + CN(C)C=O
Settings | surface tension liquid-gas, 298.15 K [mN/m] | surface tension liquid-gas, 303.15 K [mN/m] | surface tension liquid-gas, 308.15 K [mN/m] | surface tension liquid-gas, 313.15 K [mN/m] | viscosity, 298.15 K [mPa·s] | viscosity, 303.15 K [mPa·s] | viscosity, 308.15 K [mPa·s] | viscosity, 313.15 K [mPa·s]
x2 = 0 | 27.58 | 26.53 | 25.49 | 24.44 | 9.715 | 7.927 | 6.664 | 5.645
x2 = 0.2201 | 28.12 | 27.04 | 25.98 | 24.92 | 4.766 | 3.633 | 2.965 | 2.416
x2 = 0.3969 | 28.54 | 27.42 | 26.33 | 25.27 | 2.715 | 1.932 | 1.532 | 1.196
x2 = 0.5458 | 28.97 | 27.81 | 26.7 | 25.62 | 1.77 | 1.213 | 0.9531 | 0.7287
x2 = 0.6515 | 29.58 | 28.39 | 27.27 | 26.18 | 1.373 | 0.9494 | 0.7597 | 0.5913
x2 = 0.7321 | 30.3 | 29.11 | 27.98 | 26.9 | 1.156 | 0.8443 | 0.6817 | 0.5692
x2 = 0.8042 | 31.21 | 30.03 | 28.9 | 27.83 | 1.022 | 0.7978 | 0.6695 | 0.5762
x2 = 0.8644 | 32.19 | 31.02 | 29.9 | 28.85 | 0.9434 | 0.7834 | 0.6881 | 0.6071
x2 = 0.9168 | 33.23 | 32.08 | 30.97 | 29.93 | 0.8898 | 0.7837 | 0.7189 | 0.6468
x2 = 0.9596 | 34.2 | 33.07 | 31.97 | 30.95 | 0.8529 | 0.7764 | 0.727 | 0.6663
